# Measurements: US4596675A, “Novel thiopeptolide substrates for vertebrate collagenase” (Monsanto Company, priority 1985, dated 1986)
# Non-standard residues stand in square brackets, D forms with d. Residues, ends and D or L forms follow the SMILES beside them. *: point of attachment. Dnp = O=[N+]([O-])c1ccc(*)c([N+](=O)[O-])c1
# Target: T1, collagenase (Homo sapiens, UniProt P03956)
# T1 construct: endogenous in cells; host or cells: normal human skin fibroblasts (culture medium)
# T1 sequence (P03956 100-469): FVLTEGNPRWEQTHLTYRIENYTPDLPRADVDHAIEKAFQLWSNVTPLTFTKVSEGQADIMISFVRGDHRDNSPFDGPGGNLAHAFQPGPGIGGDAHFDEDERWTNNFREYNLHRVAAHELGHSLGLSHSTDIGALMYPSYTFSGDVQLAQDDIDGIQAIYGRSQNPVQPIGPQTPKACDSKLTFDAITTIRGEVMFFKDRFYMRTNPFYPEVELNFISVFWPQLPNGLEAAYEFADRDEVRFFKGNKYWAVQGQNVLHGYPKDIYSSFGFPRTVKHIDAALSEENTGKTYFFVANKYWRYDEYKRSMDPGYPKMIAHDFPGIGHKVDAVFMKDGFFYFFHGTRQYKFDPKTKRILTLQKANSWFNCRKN
# Experiment: Rate of hydrolysis of substrates by collagenase, assayed by HPLC
# Type: biochemical
# Settings: Comparison of Substrate; assayed by HPLC (no chromophore)
# Experimental: The following Table I sets forth the relative rates of hydrolysis in the above spectrophotometric assay using the above thiopeptolides as substrates in comparison to the rates of hydrolysis assayed by High Performance Liquid Chromatography (HPLC) of two commercially available substrates for collagenase and two other substrates described in copending Application Ser. No. 450,318, cited hereinbefore.
row,Compound,Relative Rate (of hydrolysis)
1,CCOC(=O)CNC(=O)[C@H](C)NC(=O)[C@H](CC(C)C)NC(=O)CNC(=O)[C@H](CC(C)C)NC(=O)[C@@H]1CCCN1C(C)=O [Ac--Pro--Leu--Gly--Leu--Ala--Gly--OC2 H5] (Ac-PLGLAG-OEt),110
2,CCOC(=O)CNC(=O)[C@H](CC(C)C)NC(=O)[C@H](CC(C)C)NC(=O)CNC(=O)[C@H](CC(C)C)NC(=O)[C@@H]1CCCN1C(C)=O [Ac--Pro--Leu--Gly--Leu--Leu--Gly--OC2 H5] (Ac-PLGLLG-OEt),250
3,CC[C@H](C)[C@H](NC(=O)CNC(=O)[C@H](CCC(N)=O)NC(=O)[C@@H]1CCCN1c1ccc([N+](=O)[O-])cc1[N+](=O)[O-])C(=O)N[C@@H](C)C(=O)NCC(=O)N[C@@H](CCC(N)=O)C(=O)N[C@H](CCCNC(=N)N)C(=O)O [DNP-Pro-Gln-Gly-Ile-Ala-Gly-Gln-D-Arg-OH] (Dnp-PQGIAGQ[dR]-OH),5
4,CC[C@H](C)[C@H](NC(=O)CNC(=O)[C@H](CC(C)C)NC(=O)[C@@H]1CCCN1c1ccc([N+](=O)[O-])cc1[N+](=O)[O-])C(=O)N[C@@H](C)C(=O)NCC(=O)N[C@@H](CCCNC(=N)N)C(N)=O [DNP-Pro-Leu-Gly-Ile-Ala-Gly-Arg-NH2] (Dnp-PLGIAGR-NH2),25
